For six compounds, confluency, metabolic activity and cytotoxicity results are on record in the supplement of paper PMC11919725.

Assay [1] deals with Jurkat. The assay is described as follows: confluency relative to DMSO, 18 h (ratio); higher = more viable. In short, it runs like this: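 Compound was applied at 1 nM–10 µM (log10 steps) for 18 h at 37 °C, 5% CO2 to Jurkat cells or to primary CD4+/CD8+ T cells that were naive or had been activated 48 h with CD3/CD28 Dynabeads. Suspension (100 µl) was then plated in 96-well plates with IncuCyte Cytotox Dye and alamarBlue and imaged hourly over 3 h (×10, five images per well). Confluency was calculated from the IncuCyte phase-contrast images using the Basic Analyzer and normalised to the mean of the control wells.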

Assay [2] concerns Jurkat. As to the kind of experiment: metabolic activity relative to DMSO, 18 h (ratio); higher = more viable. A digest of the protocol:
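Jurkat cells and primary CD4+/CD8+ T cells, naive or activated for 48 h on CD3/CD28 Dynabeads, were incubated for 18 h with compound at 1 nM–10 µM. Fluorescence was read 3.5 h after alamarBlue addition (10% v/v final) at excitation 544 nm and emission 584 nm. Metabolic activity is normalised to the mean of vehicle controls.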

In assay [3] the test system is Jurkat. The assay is described as follows: cytotoxicity relative to DMSO, 18 h (ratio); higher = less cell death (drugs called cytotoxic fall below 1). In short, it runs like this: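 Fluorescence was imaged at ×10, five images per well, every hour for 3 h, in 96-well plates holding 100 µl of treated cell suspension and IncuCyte Cytotox Dye at 250 nM final. Before plating, Jurkat cells or primary CD4+/CD8+ T cells (naive, or activated 48 h with CD3/CD28 Dynabeads) had been treated for 18 h with compound across 1 nM–10 µM in log10 steps at 37 °C, 5% CO2. Cytotoxicity values were based on these IncuCyte signals after confluency correction and normalisation to the mean of control wells.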

As to `CC(C)(C)c1nc(-c2cccc(NS(=O)(=O)c3c(F)cccc3F)c2F)c(-c2ccnc(N)n2)s1` [Dabrafenib], the confluency was determined as 0.98 in the assay with Jurkat [1] (1 nM); 1 in the assay with Jurkat [1] (10 nM); 0.973 with Jurkat [1] (100 nM); 0.971 in the assay on Jurkat [1] (1000 nM); 0.965 in the assay with Jurkat [1] (10000 nM). In addition, the metabolic activity in the assay with Jurkat [2] (1 nM) was found to be 0.973; in the assay with Jurkat [2] (10 nM), 1.02; with Jurkat [2] (100 nM), 0.992; in the assay on Jurkat [2] (1000 nM), 0.91; with Jurkat [2] (10000 nM), 0.73. For the same compound, the cytotoxicity in the assay on Jurkat [3] (1 nM) is 0.941; in the assay with Jurkat [3] (10 nM), 0.994; in the assay with Jurkat [3] (100 nM) it was 0.966; in the assay on Jurkat [3] (1000 nM), 0.846; in the assay with Jurkat [3] (10000 nM), 0.863.
Regarding `Cn1c(=O)n(-c2ccc(C(C)(C)C#N)cc2)c2c3cc(-c4cnc5ccccc5c4)ccc3ncc21` [Dactolisib], the confluency in the assay with Jurkat [1] (1 nM) is 0.986; in the assay with Jurkat [1] (10 nM), 0.909; in the assay on Jurkat [1] (100 nM), 0.978; in the assay on Jurkat [1] (1000 nM), 1.05; with Jurkat [1] (10000 nM) it was 0.946. Besides, the metabolic activity was determined as 0.966 in the assay on Jurkat [2] (1 nM); 0.894 with Jurkat [2] (10 nM); 0.652 with Jurkat [2] (100 nM); 0.601 with Jurkat [2] (1000 nM); 0.578 with Jurkat [2] (10000 nM). In addition, the cytotoxicity in the assay on Jurkat [3] (1 nM) was 0.958; in the assay on Jurkat [3] (10 nM), 0.809; in the assay on Jurkat [3] (100 nM), 0.746; in the assay with Jurkat [3] (1000 nM), 0.927; in the assay with Jurkat [3] (10000 nM), 0.822.
As for `Cc1nc(Nc2ncc(C(=O)Nc3c(C)cccc3Cl)s2)cc(N2CCN(CCO)CC2)n1` [Dasatinib], the confluency with Jurkat [1] (1 nM) is 0.949; in the assay with Jurkat [1] (10 nM) it was 0.946; with Jurkat [1] (100 nM), 0.958; in the assay on Jurkat [1] (1000 nM), 0.965; in the assay with Jurkat [1] (10000 nM), 0.91. The metabolic activity in the assay with Jurkat [2] (1 nM) stood at 1.07; with Jurkat [2] (10 nM), 1.07; in the assay with Jurkat [2] (100 nM), 1.01; in the assay on Jurkat [2] (1000 nM), 0.989; in the assay with Jurkat [2] (10000 nM), 0.845. Moreover, the cytotoxicity with Jurkat [3] (1 nM) was determined as 0.993; in the assay on Jurkat [3] (10 nM) it was 0.967; in the assay with Jurkat [3] (100 nM), 0.979; with Jurkat [3] (1000 nM), 0.994; with Jurkat [3] (10000 nM), 0.882.
For `CCC(C)(Nc1ccnc(-c2c[nH]c3ncccc23)n1)C(=O)NCC(F)(F)F` (stereo not given) [Decernotinib], the confluency is 1.03 in the assay on Jurkat [1] (1 nM); 1.03 with Jurkat [1] (10 nM); 0.996 in the assay on Jurkat [1] (100 nM); 0.993 in the assay with Jurkat [1] (1000 nM); 0.96 with Jurkat [1] (10000 nM). The metabolic activity in the assay on Jurkat [2] (1 nM) stood at 1.08; with Jurkat [2] (10 nM), 1.08; with Jurkat [2] (100 nM), 1.02; with Jurkat [2] (1000 nM), 1.05; in the assay with Jurkat [2] (10000 nM), 1.07. Besides, the cytotoxicity with Jurkat [3] (1 nM) was 1.1; in the assay on Jurkat [3] (10 nM) it was 1.09; in the assay with Jurkat [3] (100 nM), 1.01; in the assay with Jurkat [3] (1000 nM) it was 1.04; with Jurkat [3] (10000 nM), 1.03.
Take `Nc1ncn(C2CC(O)C(CO)O2)c(=O)n1` (stereo not given) [Decitabine]: the confluency was 1.02 with Jurkat [1] (1 nM); 1.01 with Jurkat [1] (10 nM); 0.986 with Jurkat [1] (100 nM); 0.972 in the assay with Jurkat [1] (1000 nM); 0.939 in the assay with Jurkat [1] (10000 nM). In addition, the metabolic activity with Jurkat [2] (1 nM) was 1.05; in the assay on Jurkat [2] (10 nM) it was 1.04; in the assay with Jurkat [2] (100 nM), 1.02; in the assay on Jurkat [2] (1000 nM), 0.948; with Jurkat [2] (10000 nM) it was 0.867. The cytotoxicity is 0.966 in the assay with Jurkat [3] (1 nM); 0.964 in the assay on Jurkat [3] (10 nM); 0.922 with Jurkat [3] (100 nM); 0.869 in the assay on Jurkat [3] (1000 nM); 0.862 in the assay on Jurkat [3] (10000 nM).
Take `CCc1cnn2c(NCc3ccc[n+]([O-])c3)cc(N3CCCCC3CCO)nc12` (stereo not given) [Dinaciclib]: the confluency in the assay with Jurkat [1] (1 nM) was 0.988; with Jurkat [1] (10 nM) it was 1.02; with Jurkat [1] (100 nM) it was 0.864; with Jurkat [1] (1000 nM), 0.871; in the assay with Jurkat [1] (10000 nM) it was 1.16. For the same compound, the metabolic activity in the assay on Jurkat [2] (1 nM) came to 0.162; with Jurkat [2] (10 nM), 0.147; with Jurkat [2] (100 nM) it was 0.13; with Jurkat [2] (1000 nM) it was 0.139; in the assay on Jurkat [2] (10000 nM) it was 0.128. Besides, the cytotoxicity is 0.926 in the assay with Jurkat [3] (1 nM); 1.03 with Jurkat [3] (10 nM); 0.821 with Jurkat [3] (100 nM); 0.989 in the assay on Jurkat [3] (1000 nM); 1.09 in the assay on Jurkat [3] (10000 nM).
